The values below come from ChEMBL document CHEMBL3132786, “Cytotoxic, immunomodulatory, antimycotic, and antiviral activities of semisynthetic 14-hydroxyabietane derivatives and triptoquinone C-4 epimers” (Medchemcomm, 2013).

≈ marks a conversion by molar mass, not a printed value. Calls of active or inactive are those of the source. The calls are words filed in the database; no cut-off is given here.

The test system of series [1] is Aspergillus fumigatus. In words: Antifungal activity against Aspergillus fumigatus up to 100 ug/ml after 48 hrs by broth dilution method. Type of series: functional, organism-based.
The next series relates to Jurkat. As to the kind of experiment: Cytotoxicity against human Jurkat cells after 48 hrs by MTT assay. The format is functional, cell-based.
The test system of series [2] is Aspergillus niger. As to the kind of experiment: Antifungal activity against Aspergillus niger up to 100 ug/ml after 48 hrs by broth dilution method. The format is functional, organism-based.
A further series relates to Aspergillus flavus. In words: Antifungal activity against Aspergillus flavus up to 100 ug/ml after 48 hrs by broth dilution method. Type of series: functional, organism-based.
The test system of series [3] is Aspergillus fumigatus. In words: Antifungal activity against Aspergillus fumigatus after 48 hrs by broth dilution method. The format is functional.
The subject of series [4] is Aspergillus niger. As to the kind of experiment: Antifungal activity against Aspergillus niger after 48 hrs by broth dilution method. The format is functional.
Another series has as its system Human alphaherpesvirus 1. As to the kind of experiment: Antiviral activity against Herpes simplex virus type 1 infected in HeLa cells assessed as reduction in viral replication after 48 hrs. The format is functional, organism-based.
Series [5] concerns Aspergillus terreus. In words: Antifungal activity against Aspergillus terreus after 48 hrs by broth dilution method. The format is functional.
For series [6], the system named is Aspergillus terreus. As to the kind of experiment: Antifungal activity against Aspergillus terreus up to 100 ug/ml after 48 hrs by broth dilution method. Type of series: functional, organism-based.
A further series relates to Vero. In words: Cytotoxicity against african green monkey Vero cells after 48 hrs by MTT assay. The format is cell-based. The conditions noted are these: chlorocebus sabaeus.
The nature of series [7]: Selectivity ratio of IC50 for african green monkey Vero cells to IC50 for human HeLa cells. The format is ADME, cell-based. The settings on record: Vero cells versus HeLa cells, read-out: Ratio IC50.
Series [8] can be described thus: Selectivity ratio of IC50 for african green monkey Vero cells to IC50 for human Jurkat cells. The format is ADME, cell-based. The conditions noted are these: Vero cells versus Jurkat cells, read-out: Ratio IC50.
A further series concerns HeLa. As to the kind of experiment: Cytotoxicity against human HeLa cells after 48 hrs by MTT assay. The format is functional, cell-based.

Consider `CC(C)c1ccc2c(c1O)CC[C@H]1[C@](C)(CO)CCC[C@]21C`, for which the result in the series on Aspergillus fumigatus [1], in the series with Aspergillus niger [2], in the series with Aspergillus flavus, in the series with Human alphaherpesvirus 1 and in the series on Aspergillus terreus [6] was inactive. In addition, the inhibition entry in the series on Jurkat and in the series on HeLa was “Dose-dependent effect” throughout. The MIC against Aspergillus fumigatus [3] was found to be 25 mg/L (≈ 82.7 µM); in the series on Aspergillus niger [4], 50 mg/L (≈ 165 µM); in the series with Aspergillus terreus [5], 25 mg/L (≈ 82.7 µM). The “inhibition (INH)” value with Vero was “Dose-dependent effect”. For the same compound, the values for the selectivity ratio in [7] and in series [8] were 0.71 and 2.3, respectively.
